“Also recorded” adds a separate entry of the source.
What was measured:
Format in all cases: physicochemical
[1] = Chelation test with Lanthanum (III) (HPLC, LCMS); settings: La(NO3)3, room temperature
Method: HPLC method: XBridge C18 3.5 μm 150×4.6 mm, 100 Å column; Mobile phase A: 0.1% TFA in H2O, B: 0.1% TFA in ACN; gradient 10% to 30% B in 0-20 min, gradient 30% to 100% B in 20-20.1 min, isocratic at 100% B in 20.1-25 min, gradient 100% to 10% B in 25-25.1 min, isocratic at 10% B in 25.1-30 min; postrun 3 min; flow rate 1 mL/min; column temperature 30° C.; injection volume 5 uL. Synthesis and Characterization of H2bp18c6-Benzyl-Phenyl
An aqueous solution of H2bp18c6-benzyl-isopentyl in water (˜3 mg/mL=˜5 mM, 20 μL, 0.1 μmol) was treated with La(NO3)3 (10 mM in metal free water, 50 μL, 0.5 μmol). An aqueous solution of H2bp18c6-benzyl-phenyl in water (˜3 mg/mL=˜5 mM, 20 μL, 0.1 μmol) was treated with La(NO3)3 (10 mM in metal free water, 50 μL, 0.5 μmol). After thorough mixing, each solution was analyzed by LCMS and HPLC to determine whether complexes of the chelator and La^3+ formed.
Complex formation was also confirmed by LCMS.

[2] = DTPA challenge of ^225Ac complexes, iTLC-SG; settings: 30 min; for free ^225Ac by iTLC-SG after DTPA challenge / free Ac-225 at the solvent front of the iTLC-SG after DTPA challenge: free chelator, 10 mM DTPA; for free ^225Ac by iTLC-SG after DTPA challenge: high ^225Ac/chelator ratio (50 μCi); for free Ac-225 at the solvent front of the iTLC-SG after DTPA challenge: low ^225Ac/chelator ratio; for chelated Ac-225 (iTLC) after DTPA: reaction mixture with 10 mM DTPA (pH 6.5)
Method: DTPA challenge: 0.5 μL of the reaction mixture was mixed with 15 μL of 10 mM DTPA solution and the mixture was incubated for 30 min.
DTPA challenge: 10 μL of fraction #3 collected after PD-10 column was mixed with 15 μL of 10 mM DTPA solution (pH 6.5), and incubated for 30 min.
0.5 μL of reaction mixture was mixed with 15 μL 10 mM DTPA (pH 6.5) and incubated for 30 min.

[3] = ^225Ac(III) chelation / labeling, iTLC-SG analysis; settings: pH ~6.5; for free ^225Ac by iTLC-SG before DTPA challenge / free Ac-225 at the solvent front of the iTLC-SG: free chelator; for free ^225Ac by iTLC-SG before DTPA challenge: high ^225Ac/chelator ratio (50 μCi), room temperature 1.5-2 hr; for free Ac-225 at the solvent front of the iTLC-SG: low ^225Ac/chelator ratio (30 μCi), room temperature 1-2 hr; for chelated Ac-225 (iTLC): free chelator (2 mg/mL 3 μL; ethoxylmethyl isomers 1 mg/mL 1 μL), 30 μCi ^225Ac, 37° C. 2 h

| SMILES | chelated Ac-225 (iTLC) after DTPA [2] | chelated Ac-225 (iTLC) [3] | further results |
| --- | --- | --- | --- |
| CC(C)CCC(c1cccc(C(=O)O)n1)N1CCOCCOCCN(Cc2cccc(C(=O)O)n2)CCOCCOCC1 (centres unmarked) | – | – | chelation with La^3+ (shift in HPLC peak retention time) [1]: rapid chelation; chelation with La^3+ (shift in HPLC peak retention time) ([1]; listed as isopentane-H2bp18c6): rapid and stoichiometric chelation; free ^225Ac by iTLC-SG after DTPA challenge [2]: No free ^225Ac was detected; free Ac-225 at the solvent front of the iTLC-SG after DTPA challenge [2]: No radioactivity was observed at the solvent front; free ^225Ac by iTLC-SG before DTPA challenge [3]: No free ^225Ac was detected; free Ac-225 at the solvent front of the iTLC-SG [3]: No radioactivity was observed at the solvent front |
| O=C(O)c1cccc(CN2CCOCCOCCN(Cc3cccc(C(=O)O)n3)CCO[C@@H]3CCC[C@@H]3OCC2)n1 | 99% | 99% | – |
| O=C(O)c1cccc(CN2CCOCCOCCN(Cc3cccc(C(=O)O)n3)CCO[C@@H]3CCCC[C@H]3OCC2)n1 | 99% | 99% | – |
| O=C(O)c1cccc(CN2CCOCCOCCN(Cc3cccc(C(=O)O)n3)CCO[C@@H]3CCC[C@H]3OCC2)n1 | 99% | 99% | – |
| CCOC[C@@H]1COCCN(Cc2cccc(C(=O)O)n2)CCOCCOCCN(Cc2cccc(C(=O)O)n2)CCO1 (single isomer, unassigned) [H2bp18c6-off Macrocycle-ethoxylmethyl isomer II] | 99% | 99% | – |
| CCOC[C@H]1COCCN(Cc2cccc(C(=O)O)n2)CCOCCOCCN(Cc2cccc(C(=O)O)n2)CCO1 (single isomer, unassigned) [H2bp18c6-off Macrocycle-ethoxylmethyl isomer I] | 99% | 99% | – |
| O=C(O)c1cccc(CN2CCOCCOCCN(Cc3cccc(C(=O)O)n3)CCO[C@H](CO)COCC2)n1 (single isomer, unassigned) [H2bp18c6-off Macrocycle-hydroxylmethyl isomer II] | 99% | 99% | – |
| O=C(O)c1cccc(CN2CCOCCOCCN(Cc3cccc(C(=O)O)n3)CCO[C@@H](CO)COCC2)n1 (single isomer, unassigned) [H2bp18c6-off Macrocycle-hydroxylmethyl isomer I] | 99% | 99% | – |
| O=C(NCCC(=O)N1Cc2ccccc2C#Cc2ccccc21)c1ccc(C(c2cccc(C(=O)O)n2)N2CCOCCOCCN(Cc3cccc(C(=O)O)n3)CCOCCOCC2)cc1 (centres unmarked) [H2bp18c6-benzyl-phenyl-DBCO] | – | – | free Ac-225 at the solvent front of the iTLC-SG after DTPA challenge [2]: No radioactivity was detected at the solvent front; free Ac-225 at the solvent front of the iTLC-SG [3]: No radioactivity activity was observed at the solvent front |
| O=C(O)c1cccc(CN2CCOCCOCCN(C(c3ccccc3)c3cccc(C(=O)O)n3)CCOCCOCC2)n1 (centres unmarked) [H2bp18c6-benzyl-phenyl] | – | – | chelation with La^3+ (shift in HPLC peak retention time) [1]: rapid and stoichiometric chelation; free ^225Ac by iTLC-SG after DTPA challenge [2]: No free ^225Ac was detected; free Ac-225 at the solvent front of the iTLC-SG after DTPA challenge [2]: No free ^225Ac was detected after DTPA challenge; free ^225Ac by iTLC-SG before DTPA challenge [3]: No free ^225Ac was detected; free Ac-225 at the solvent front of the iTLC-SG [3]: No free ^225Ac ion was detected; also recorded: No radioactivity was observed at the solvent front |
| O=C(O)c1cccc(CN2CCOCCOCCN(Cc3cccc(C(=O)O)n3)CCO[C@@H]3CCCC[C@@H]3OCC2)n1 [H2bp18c6-cis-cyclohexyl-fused Macrocycle] | 99% | 99% | – |

— patent US12453785B2, “Macrocyclic chelators and methods of use thereof” (JANSSEN BIOTECH, INC., priority 2019, dated 2025)
